Test results from EPA's ToxRefDB 2.

Legend:
rat [1] = conditions: Fertility (Segment I), sprague dawley, Oral, Gavage/Intubation, dose end: 7 GD
rat [2] = conditions: Fertility (Segment I), sprague dawley, Oral, Gavage/Intubation, dose end: 7 GD; remark: listed apart in the source
rabbit [3] = conditions: Prenatal developmental toxicity study; new zealand white; Oral; Gavage/Intubation; dose end: 19 GD; group: maternal; systemic / in life observation / body weight / body weight gain + systemic / in life observation / clinical signs / alopecia + systemic / in…
rat [4] = conditions: Prenatal developmental toxicity study, sprague dawley, Oral, Gavage/Intubation, dose end: 17 GD
dog [5] = conditions: Chronic toxicity; beagle; Oral; Gavage/Intubation; dose end: 6 month; group: systemic; systemic / in life observation / body weight / body weight + systemic / in life observation / clinical signs / pulse/pressure + systemic / …
rat [6] = conditions: Chronic toxicity, sprague dawley, Oral, Gavage/Intubation, dose end: 6 month, group: systemic
rat [7] = conditions: Fertility (Segment I), sprague dawley, Oral, Gavage/Intubation, dose end: 56 day
rat [8] = conditions: Prenatal developmental toxicity study, sprague dawley, Oral, Gavage/Intubation, dose end: 17 GD; remark: listed apart in the source
rat [9] = conditions: Sub-acute repeat dose toxicity, sprague dawley, Oral, Gavage/Intubation, dose end: 28 day
rabbit [10] = conditions: Prenatal developmental toxicity study, new zealand white, Oral, Gavage/Intubation, dose end: 19 GD, group: maternal
dog [11] = conditions: Sub-acute repeat dose toxicity; beagle; Oral; Gavage/Intubation; dose end: 1 month; group: systemic; systemic / clinical chemistry / cholesterol / cholesterol + systemic / in life observation / body weight / body weight + systemic / in life …
dog [12] = conditions: Chronic toxicity; beagle; Oral; Capsule; dose end: 12 month; group: systemic; systemic / in life observation / body weight / body weight + systemic / in life observation / clinical signs / emaciation + systemic / in …
mouse = conditions: Carcinogenicity; cd1; Oral; Feed; dose end: 78 week; group: systemic; systemic / in life observation / body weight / body weight + systemic / in life observation / body weight / body weight gain
rat [13] = conditions: Neurotoxicity screening battery; other; Oral; Feed; dose end: 11 month; group: cannot be grouped; systemic / in life observation / body weight / body weight
rat [14] = conditions: Prenatal developmental toxicity study, sprague dawley, Oral, Gavage/Intubation, dose end: 15 GD
hamster = conditions: Subchronic oral toxicity in rodents, golden syrian, Feed, dose end: 90 day, group: systemic
rat [15] = conditions: Subchronic oral toxicity in rodents, sprague-dawley, Feed, dose end: 90 day, group: systemic, systemic / organ weight / liver / absolute + systemic / organ weight / liver / relative to body weight + systemic / pathology microscopic / …
rat [16] = conditions: Multigenerational reproductive toxicity study, sprague dawley, Oral, Feed, dose end: 2 generation
rat [17] = conditions: Combined chronic toxicity/carcinogenicity; sprague dawley; Oral; Feed; dose end: 2 year; group: systemic; systemic / clinical chemistry / cholesterol / cholesterol + systemic / in life observation / body weight / body weight + systemic / in life …
[18] = group: maternal, reproductive / reproductive performance / estrous cycle / abnormal
[19] = group: parental, systemic / in life observation / clinical signs / [other] + systemic / in life observation / body weight / body weight gain + systemic / in …
[20] = group: maternal, reproductive / offspring survival early / litter viability other / total litter loss + reproductive / reproductive performance / …
[21] = group: parental, systemic / in life observation / body weight / body weight gain + systemic / in life observation / clinical signs / abnormal motor movement…
[22] = group: developmental, systemic / in life observation / body weight / fetal weight
[23] = group: maternal, systemic / in life observation / body weight / body weight + systemic / in life observation / body weight / body weight gain + systemic / in…
[24] = systemic / clinical chemistry / alanine aminotransferase (alt/sgpt) / alanine aminotransferase (alt/sgpt) + systemic / clinical chemistry / …
[25] = systemic / in life observation / clinical signs / [other] + systemic / organ weight / uterus / absolute + systemic / organ weight / uterus…
[26] = group: maternal, reproductive / reproductive performance / estrous cycle / corpora lutea + reproductive / reproductive performance / implantations / …
[27] = group: parental, systemic / in life observation / body weight / body weight gain + systemic / in life observation / clinical signs / [other] + systemic / in …
[28] = group: developmental, developmental / developmental malformation / bone / incomplete ossification + systemic / in life observation / body weight / fetal weight
[29] = group: systemic, systemic / in life observation / clinical signs / excessive or spontaneous vocalization + systemic / organ weight / salivary glands / …
[30] = systemic / in life observation / body weight / body weight gain + systemic / in life observation / food consumption / food consumption
[31] = systemic / in life observation / body weight / body weight gain + systemic / in life observation / food consumption / food consumption + …
[32] = group: maternal, systemic / in life observation / body weight / body weight gain + systemic / in life observation / clinical signs / ataxia + systemic / in …
[33] = systemic / in life observation / body weight / body weight + systemic / in life observation / food consumption / food consumption
[34] = systemic / in life observation / body weight / body weight + systemic / in life observation / food consumption / food consumption + systemic…
[35] = group: offspring, systemic / in life observation / body weight / offspring (pup) weight
[36] = group: parental, systemic / pathology gross / kidney / discolored + systemic / pathology microscopic / kidney / casts granular + systemic / pathology …

SMILES: FC(F)(F)c1cccc(C2=CCN(CCc3ccc4ccncc4c3)CC2)c1
- LEL (rat [1]; [18]): 0.1 mg/kg/day
- LOAEL (rat [1]; [18]): 0.1 mg/kg/day
- NEL (rat [1]; [18]): < 0.1 mg/kg/day
- NOAEL (rat [1]; [18]): < 0.1 mg/kg/day
- LEL (rat [1]; [19]): 0.1 mg/kg/day
- LOAEL (rat [1]; [19]): 0.1 mg/kg/day
- NEL (rat [1]; [19]): < 0.1 mg/kg/day
- NOAEL (rat [1]; [19]): < 0.1 mg/kg/day
- LOAEL (rat [2]; [20]): > 7.5 mg/kg/day
- NOAEL (rat [2]; [20]): ≥ 7.5 mg/kg/day
- LEL (rat [2]; [18]): 0.1 mg/kg/day
- NEL (rat [2]; [18]): < 0.1 mg/kg/day
- LEL (rat [2]; group: parental, systemic / in life observation / body weight / body weight gain): 1 mg/kg/day
- LOAEL (rat [2]; [21]): > 7.5 mg/kg/day
- NEL (rat [2]; [21]): 0.1 mg/kg/day
- NOAEL (rat [2]; [21]): ≥ 7.5 mg/kg/day
- LEL (rabbit [3]): 0.01 mg/kg/day
- LOAEL (rabbit [3]): > 0.05 mg/kg/day
- NEL (rabbit [3]): < 0.01 mg/kg/day
- NOAEL (rabbit [3]): ≥ 0.05 mg/kg/day
- LEL (rat [4]; [22]): 7.5 mg/kg/day
- LOAEL (rat [4]; [22]): 7.5 mg/kg/day
- NEL (rat [4]; [22]): 2.5 mg/kg/day
- NOAEL (rat [4]; [22]): 2.5 mg/kg/day
- LEL (rat [4]; [23]): 0.75 mg/kg/day
- LOAEL (rat [4]; [23]): > 7.5 mg/kg/day
- NEL (rat [4]; [23]): < 0.75 mg/kg/day
- NOAEL (rat [4]; [23]): ≥ 7.5 mg/kg/day
- LEL (dog [5]): 0.01 mg/kg/day
- LOAEL (dog [5]): > 0.25 mg/kg/day
- NEL (dog [5]): < 0.01 mg/kg/day
- NOAEL (dog [5]): ≥ 0.25 mg/kg/day
- LOAEL (rat [6]; [24]): > 7.5 mg/kg/day
- NOAEL (rat [6]; [24]): ≥ 7.5 mg/kg/day
- LEL (rat [6]; [25]): 0.1 mg/kg/day
- NEL (rat [6]; [25]): < 0.1 mg/kg/day
- LEL (rat [7]; [26]): 7.5 mg/kg/day
- LOAEL (rat [7]; [26]): > 7.5 mg/kg/day
- NEL (rat [7]; [26]): 1 mg/kg/day
- NOAEL (rat [7]; [26]): ≥ 7.5 mg/kg/day
- LEL (rat [7]; [27]): 0.1 mg/kg/day
- LOAEL (rat [7]; [27]): 0.1 mg/kg/day
- NEL (rat [7]; [27]): < 0.1 mg/kg/day
- NOAEL (rat [7]; [27]): < 0.1 mg/kg/day
- LEL (rat [8]; [28]): 7.5 mg/kg/day
- LOAEL (rat [8]; [28]): 7.5 mg/kg/day
- NEL (rat [8]; [28]): 2.5 mg/kg/day
- NOAEL (rat [8]; [28]): 2.5 mg/kg/day
- LEL (rat [8]; [23]): 0.75 mg/kg/day
- LOAEL (rat [8]; [23]): > 7.5 mg/kg/day
- NEL (rat [8]; [23]): < 0.75 mg/kg/day
- NOAEL (rat [8]; [23]): ≥ 7.5 mg/kg/day
- LEL (rat [9]; [18]): 1 mg/kg/day
- LOAEL (rat [9]; [18]): > 7.5 mg/kg/day
- NEL (rat [9]; [18]): 0.1 mg/kg/day
- NOAEL (rat [9]; [18]): ≥ 7.5 mg/kg/day
- LEL (rat [9]; [29]): 0.1 mg/kg/day
- LOAEL (rat [9]; [29]): 0.1 mg/kg/day
- NEL (rat [9]; [29]): < 0.1 mg/kg/day
- NOAEL (rat [9]; [29]): < 0.1 mg/kg/day
- LEL (rabbit [10]; [30]): 0.01 mg/kg/day
- NEL (rabbit [10]; [30]): < 0.01 mg/kg/day
- LOAEL (rabbit [10]; [31]): > 0.05 mg/kg/day
- NOAEL (rabbit [10]; [31]): ≥ 0.05 mg/kg/day
- LEL (dog [11]): 0.01 mg/kg/day
- LOAEL (dog [11]): 0.01 mg/kg/day
- NEL (dog [11]): < 0.01 mg/kg/day
- NOAEL (dog [11]): < 0.01 mg/kg/day

SMILES: CCN(CC)C(=O)c1cccc(C)c1 [DEET]
- LEL (dog [12]): 400 mg/kg/day
- LOAEL (dog [12]): 400 mg/kg/day
- NEL (dog [12]): 100 mg/kg/day
- NOAEL (dog [12]): 100 mg/kg/day
- LEL (mouse): 1000 mg/kg/day
- LOAEL (mouse): 1000 mg/kg/day
- NEL (mouse): 500 mg/kg/day
- NOAEL (mouse): 500 mg/kg/day
- LEL (rat [13]): 250 mg/kg/day
- LOAEL (rat [13]): > 250 mg/kg/day
- NEL (rat [13]): 100 mg/kg/day
- NOAEL (rat [13]): ≥ 250 mg/kg/day
- LEL (rat [14]; [22]): 750 mg/kg/day
- LOAEL (rat [14]; [22]): 750 mg/kg/day
- NEL (rat [14]; [22]): 250 mg/kg/day
- NOAEL (rat [14]; [22]): 250 mg/kg/day
- LEL (rat [14]; [32]): 750 mg/kg/day
- LOAEL (rat [14]; [32]): 750 mg/kg/day
- NEL (rat [14]; [32]): 250 mg/kg/day
- NOAEL (rat [14]; [32]): 250 mg/kg/day
- LEL (hamster; [33]): 304 mg/kg/day
- LOAEL (hamster; [33]): 304 mg/kg/day
- NEL (hamster; [34]): 61 mg/kg/day
- NOAEL (hamster; [34]): 61 mg/kg/day
- LEL (rat [15]): 100 mg/kg/day
- LOAEL (rat [15]): 100 mg/kg/day
- NEL (rat [15]): < 100 mg/kg/day
- NOAEL (rat [15]): < 100 mg/kg/day
- LEL (rat [16]; [35]): 250 mg/kg/day
- LOAEL (rat [16]; [35]): > 250 mg/kg/day
- NEL (rat [16]; [35]): 100 mg/kg/day
- NOAEL (rat [16]; [35]): ≥ 250 mg/kg/day
- LEL (rat [16]; [36]): 25 mg/kg/day
- LOAEL (rat [16]; [36]): 25 mg/kg/day
- NEL (rat [16]; [36]): < 25 mg/kg/day
- NOAEL (rat [16]; [36]): < 25 mg/kg/day
- LEL (rat [17]): 400 mg/kg/day
- LOAEL (rat [17]): 400 mg/kg/day
- NEL (rat [17]): 100 mg/kg/day
- NOAEL (rat [17]): 100 mg/kg/day
